Tested on: P. aeruginosa biofilms
Assay: Antimicrobial susceptibility of biofilms grown in rotating disk reactor (viable cell counts)
Type: cell-based
Conditions: control biofilms grown without conalbumin, FIG. 5
Description: P. aeruginosa biofilms for susceptibility tests were grown in a rotating disk reactor. Fe-unsaturated conalbumin (Sigma Chemical Co.) was added to standard biofilm medium at indicated concentrations for the duration of biofilm growth. Discs and attached bacteria were then washed 3 times in distilled water, and treated for 4 h in 1 ml of H2O2 (Fisher Scientific) or tobramycin (Eli Lilly, Indianapolis, Ind.) at indicated concentrations. The treated discs were washed 3 times, and bacteria were removed and dispersed in 2 ml sterile PBS by homogenization (Brinkman Homogenizer, model 10/35). Viable cell numbers were enumerated by plate counting.

For `NC[C@H]1O[C@H](O[C@H]2[C@H](O)[C@@H](O[C@H]3O[C@H](CO)[C@@H](O)[C@H](N)[C@H]3O)[C@H](N)C[C@@H]2N)[C@H](N)C[C@@H]1O` [tobramycin, reference compound], the “effect on viability of control biofilms” value (1000 μg/ml tobramycin, 4 h of treatment) was “minimal effects on viability”.

`OO` [H2O2, reference compound] was tested, and the “effect on viability of control biofilms” value (500 mM H2O2, 4 h of treatment) was “minimal effects on viability”.

From patent US8343911B2, “Methods of inhibiting and treating bacterial biofilms by metal chelators” (University of Iowa Research Foundation, priority 2002, dated 2013)
